Consider twelve compounds from patent US20230278981A1, “DICHLOROPHENOL HSD17B13 INHIBITORS AND USES THEREOF” (INIPHARM, INC., priority 2020, published 2023).

Some results are limits rather than exact numbers.

The assay deals with HSD17B13 (Homo sapiens (Human), UniProt Q7Z5P4). The assay is described as follows: LC/MS estrone detection assay: conversion of estradiol to estrone by HSD17B13. The class given is biochemical. Conditions: 4 μM estradiol, 6 mM NAD+, 30 nM HSD17B13 enzyme (E. coli expressed His-tagged), 2 hours at 26.5° C. The method, then: The liquid chromatography/mass spectrometry (LC/MS) estrone detection assay monitors the conversion of estradiol to estrone by HSD17B13. This assay was undertaken in a 96wp format (Eppendorf deep well Plate 96/500) in an 80 μl reaction volume containing: 4 μM of Estradiol (E2; Cayman; Ser. No. 10/006,315), 6 mM NAD+(Sigma; #N0623) and 30 nM HSD17B13 enzyme (in-house; E. coli expressed His-tagged, purified, soluble protein) in a reaction containing […] potassium phosphate buffer pH 7.4, with 0.5% vehicle (DMSO). Reactions were incubated for 2 hours at 26.5° C., and estradiol (E2) conversion to estrone (E1) was quantitated by LC-MS/MS based analyte detection for both E2 and E1 using LCMS grade reagents.
Reactions were terminated by the addition of two volumes of acetonitrile (MeCN; LCMS grade; CAS #75/05/8) containing deuterated (D4)-E1 used as internal standard (Clear Synth; #CS-T-54273; 500 ng/mL final concentration). Samples were applied to pre-prepared Bond Elut-C18 extraction cartridges (3 mL; Agilent; Ser. No. 12/102,028), washed and eluted in MeCN. Eluates were dried under nitrogen and re-suspended in 60% methanol (LCMS grade methanol; CAS #67/56/1) before submission for analysis. Aqueous linearity for E2 and E1 were included for quantification.
Analysis of samples was undertaken on a XBridge BEH C18 column (Waters; #186003033) using 0.1% Diethyl Amine in MeCN (mobile phase A; DEA CAS #109-89-7) and 0.1% Diethyl Amine in milli-Q water (mobile phase B) in a 3 min gradient allowing 25% B. Analytes were detected in negative mode using MRM analysis, with E2 having a RT of 1.85 min and E1 having a RT of 2 min. Activity of the enzyme, in the absence of NAD^+, was used to evaluate specificity of conversion. Enzyme activity in the presence of test samples was expressed as a percentage of the uninhibited enzyme activity, and plotted versus inhibitor concentration. Non-linear regression was performed using a four-parameter logistic model and GraphPad Prism software (GraphPad Software, La Jolla, Calif.). All assessments were undertaken in duplicate evaluations and pooled during extraction process and subsequently injected as duplicates for LC-MS/MS analysis.

Sequence of HSD17B13 (Q7Z5P4 20-300): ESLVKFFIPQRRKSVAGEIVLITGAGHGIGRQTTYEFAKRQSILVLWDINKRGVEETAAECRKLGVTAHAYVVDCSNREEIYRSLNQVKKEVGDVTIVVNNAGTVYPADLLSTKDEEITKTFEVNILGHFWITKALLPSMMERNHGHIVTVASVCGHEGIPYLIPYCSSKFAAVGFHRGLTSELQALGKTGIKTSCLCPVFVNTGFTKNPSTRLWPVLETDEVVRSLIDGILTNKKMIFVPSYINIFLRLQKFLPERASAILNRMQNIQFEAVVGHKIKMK

`CS(=O)(=O)c1ccccc1Cn1cnc2cccc(NC(=O)c3cc(Cl)c(O)c(Cl)c3)c2c1=O` [Example 51, 3,5-dichloro-4-hydroxy-N-(3-(2-(methylsulfonyl)benzyl)-4-oxo-3,4-dihydroquinazolin-5-yl)benzamide.] had an IC50 of 100 to 500 nM. The figure for `Cc1ccc2ncn(Cc3ccccc3OC(F)(F)F)c(=O)c2c1NC(=O)c1cc(Cl)c(O)c(Cl)n1` [Example 131, 4,6-dichloro-5-hydroxy-N-(6-methyl-4-oxo-3-{[2-(trifluoromethoxy)phenyl]methyl}-3,4-dihydroquinazolin-5-yl)pyridine-2-carboxamide] is 100 to 500 nM; for `O=C(Nc1cc(Cl)sc1C(=O)NCc1ccccc1OC(F)(F)F)c1cc(Cl)c(O)c(Cl)c1` [Example 37, 5-chloro-3-(3,5-dichloro-4-hydroxybenzamido)-N-(2-(trifluoromethoxy)benzyl) thiophene-2-carboxamide] it is at most 100 nM. Regarding `O=C(Nc1cccc2ncn(Cc3ncccc3C(F)(F)F)c(=O)c12)c1cc(Cl)c(O)c(Cl)c1` [Example 75, 3,5-dichloro-4-hydroxy-N-(4-oxo-3-((3-(trifluoromethyl)pyridin-2-yl)methyl)-3,4-dihydroquinazolin-5-yl)benzamide], the IC50 was at most 100 nM.

For `CN1CCN(c2ccc(Cn3cnc4cccc(NC(=O)c5cc(Cl)c(O)c(Cl)c5)c4c3=O)cc2)CC1` [Example 45, 3,5-dichloro-4-hydroxy-N-(3-(4-(4-methylpiperazin-1-yl)benzyl)-4-oxo-3,4-dihydroquinazolin-5-yl)benzamide], the half-maximal inhibitory concentration (IC50) was in the range of 1000 to 10000 nM.

Consider `Cc1ccc(NC(=O)c2cc(Cl)c(O)c(Cl)n2)c2c(=O)n(Cc3cccc(C(F)(F)F)n3)c(C)nc12` [Example 205, 4,6-dichloro-N-(2,8-dimethyl-4-oxo-3-((6-(trifluoromethyl)pyridin-2-yl)methyl)-3,4-dihydroquinazolin-5-yl)-5-hydroxypicolinamide], for which the IC50 is 500 to 1000 nM. The figure for `O=C(Nc1ncsc1C(=O)NCc1ccccc1C(F)(F)F)c1cc(Cl)c(O)c(Cl)c1` [Example 26, 4-(3,5-dichloro-4-hydroxybenzamido)-N-(2-(trifluoromethyl)benzyl)thiazole-5-carboxamide] is 100 to 500 nM; for `O=C(Nc1ncsc1C(=O)NCCc1ccccc1C(F)(F)F)c1cc(Cl)c(O)c(Cl)c1` [Example 25, 4-(3,5-dichloro-4-hydroxybenzamido)-N-(2-(trifluoromethyl)phenethyl) thiazole-5-carboxamide] it is 100 to 500 nM; for `Cc1nc2c(F)ccc(NC(=O)c3cc(Cl)c(O)c(Cl)n3)c2c(=O)n1Cc1ccccc1OC(F)(F)F` [Example 150, 4,6-dichloro-N-(8-fluoro-2-methyl-4-oxo-3-(2-(trifluoromethoxy)benzyl)-3,4-dihydroquinazolin-5-yl)-5-hydroxypicolinamide] it is at most 100 nM. The figure for `[2H]C([2H])(c1ccccc1C(F)(F)F)n1c(C)nc2c(C)ccc(NC(=O)c3cc(Cl)c(O)c(Cl)n3)c2c1=O` [Example 201, 4,6-dichloro-N-(2,8-dimethyl-4-oxo-3-{[2-(trifluoromethyl)phenyl](^2H2)methyl}-3,4-dihydroquinazolin-5-yl)-5-hydroxypyridine-2-carboxamide] is 100 to 500 nM. The figure for `Cn1nc(NC(=O)c2cc(Cl)c(O)c(Cl)c2)c2c(=O)n(Cc3ccccc3OC(F)(F)F)cnc21` [Example 118, 3,5-dichloro-4-hydroxy-N-(1-methyl-4-oxo-5-(2-(trifluoromethoxy)benzyl)-4,5-dihydro-1H-pyrazolo[3,4-d]pyrimidin-3-yl)benzamide] is 500 to 1000 nM. On to `Cc1ccc(NC(=O)c2cc(Cl)c(O)c(Cl)n2)c2c(=O)n(Cc3ccccc3C(F)(F)F)c(C(F)F)nc12` [Example 181, 4,6-dichloro-N-(2-(difluoromethyl)-8-methyl-4-oxo-3-(2-(trifluoromethyl)benzyl)-3,4-dihydroquinazolin-5-yl)-5-hydroxypicolinamide], for which the half-inhibitory concentration (IC50) lay in the range of 100 to 500 nM.

Broadly, the IC50 is the point on the concentration scale where inhibition reaches its midpoint. Read a high IC50 as a need for much substance.
